Measured values reported in PubChem BioAssay AID1845202 (Molecular Pharmacology Branch, DTP, NCI, 2023).
“And” between values parts separate entries of the source, which are not always exact repeats. Equal values may be shown once.

System: DMS 114 tumor spheroids, viability % test/control
Assay: Anticancer human tumor DMS 114 cell line growth inhibition;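 note: spheroids exposed to compounds for 7 days before read-out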;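 for viability, T/C: luminescence used as a proxy for viable cells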
Conditions: spheroids with HUVEC and MSC; for viability, T/C: stronger effect = lower value
Procedure, shortened: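 Complex tumor spheroids combined malignant cells with endothelial cells and mesenchymal stem cells. DNA-damaging drugs and DNA repair inhibitors were tested alone and in combination, at half-log dilutions down from clinical Cmax (top 10 microM if Cmax unknown), 0.25% DMSO final.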

[1] = curve of first compound, second compound 1 µM
[2] = curve of first compound, second compound 3.16 µM
[3] = curve of first compound, second compound 10 µM
[4] = curve of first compound, second compound 31.6 µM
[5] = curve of first compound, second compound 100 µM
[6] = second compound 1 µM, first compound 0.0316 µM
[7] = second compound 1 µM, first compound 0.1 µM
[8] = second compound 1 µM, first compound 0.316 µM
[9] = second compound 1 µM, first compound 1 µM
[10] = second compound 1 µM, first compound 3.16 µM
[11] = second compound 1 µM, first compound 10 µM
[12] = second compound 3.16 µM, first compound 0.0316 µM
[13] = second compound 3.16 µM, first compound 0.1 µM
[14] = second compound 3.16 µM, first compound 0.316 µM
[15] = second compound 3.16 µM, first compound 1 µM
[16] = second compound 3.16 µM, first compound 3.16 µM
[17] = second compound 3.16 µM, first compound 10 µM
[18] = second compound 10 µM, first compound 0.0316 µM
[19] = second compound 10 µM, first compound 0.1 µM
[20] = second compound 10 µM, first compound 0.316 µM
[21] = second compound 10 µM, first compound 1 µM
[22] = second compound 10 µM, first compound 3.16 µM
[23] = second compound 10 µM, first compound 10 µM
[24] = second compound 31.6 µM, first compound 0.0316 µM
[25] = second compound 31.6 µM, first compound 0.1 µM
[26] = second compound 31.6 µM, first compound 0.316 µM
[27] = second compound 31.6 µM, first compound 1 µM
[28] = second compound 31.6 µM, first compound 3.16 µM
[29] = second compound 31.6 µM, first compound 10 µM
[30] = second compound 100 µM, first compound 0.0316 µM
[31] = second compound 100 µM, first compound 0.1 µM
[32] = second compound 100 µM, first compound 0.316 µM
[33] = second compound 100 µM, first compound 1 µM
[34] = second compound 100 µM, first compound 3.16 µM
[35] = second compound 100 µM, first compound 10 µM

COc1ccc([C@@H](O)c2cc(-c3ncnc4cc(N5CCOCC5)ccc34)c(F)cc2Cl)nn1 + Cn1nnc2c(C(N)=O)ncn2c1=O
IC50 [1]: 8.43 µM | IC50 [2]: > 10 µM | IC50 [3]: 9.93 µM | IC50 [4]: 8.47 µM | IC50 [5]: 5.87 µM | viability, T/C [6]: 101% | viability, T/C [7]: 103% | viability, T/C [8]: 99.3% | viability, T/C [9]: 114% | viability, T/C [10]: 94.8% | viability, T/C [11]: 42.3% | viability, T/C [12]: 107% | viability, T/C [13]: 109% | viability, T/C [14]: 102% | viability, T/C [15]: 117% | viability, T/C [16]: 95.6% | viability, T/C [17]: 50.5% | viability, T/C [18]: 100% | viability, T/C [19]: 108% | viability, T/C [20]: 114% | viability, T/C [21]: 106% | viability, T/C [22]: 86.9% | viability, T/C [23]: 49.8% | viability, T/C [24]: 104% | viability, T/C [25]: 95.8% | viability, T/C [26]: 95.8% | viability, T/C [27]: 109% | viability, T/C [28]: 79.8% | viability, T/C [29]: 45% | viability, T/C [30]: 88.8% | viability, T/C [31]: 95.8% | viability, T/C [32]: 95.1% | viability, T/C [33]: 81.4% | viability, T/C [34]: 69.5% | viability, T/C [35]: 34%

CNCc1ccc(-c2cc(-c3nc(-c4ccc(S(=O)(=O)C(C)C)cc4)cnc3N)on2)cc1
viability, T/C (compound 0.00949 µM): 93% and 107% and 91.3% | viability, T/C (compound 0.03 µM): 96.8% and 102% and 94% | viability, T/C (compound 0.0949 µM): 88.2% and 77.7% and 80.8% | viability, T/C (compound 0.3 µM): 34.7% and 25.9% and 27.3% | viability, T/C (compound 0.949 µM): 3.27% and 5.9% and 2.77% | viability, T/C (compound 3 µM): 0.32% and 0.23% and 0.26% | IC50 (curve of compound): 0.216 µM and 0.176 µM and 0.184 µM

O=C(c1cc(Cc2n[nH]c(=O)c3ccccc23)ccc1F)N1CCN(C(=O)C2CC2)CC1
viability, T/C (compound 0.0949 µM): 105% and 104% and 97.3% | viability, T/C (compound 0.3 µM): 104% (2×) and 102% | viability, T/C (compound 0.949 µM): 107% and 98.7% and 106% | viability, T/C (compound 3 µM): 109% and 107% and 102% | viability, T/C (compound 9.49 µM): 70.7% and 53.2% and 55.8% | viability, T/C (compound 30 µM): 48.5% and 29.6% and 26.8% | IC50 (curve of compound): 27.7 µM and 11.1 µM and 12 µM

[2H]c1nc(C)nc([2H])c1-c1cc(NC[C@@H](C)c2cccc3c(C(=O)NC)ccnc23)ncn1
viability, T/C (compound 0.0316 µM): 103% and 104% (2×) | viability, T/C (compound 0.1 µM): 109% and 103% and 111% | viability, T/C (compound 0.316 µM): 105% and 99.8% and 113% | viability, T/C (compound 1 µM): 105% and 103% and 96.1% | viability, T/C (compound 3.16 µM): 101% and 98% and 103% | viability, T/C (compound 10 µM): 96.1% and 93.5% and 87.6% | IC50 (curve of compound): > 10 µM

[2H]c1nc(C)nc([2H])c1-c1cc(NC[C@@H](C)c2cccc3c(C(=O)NC)ccnc23)ncn1 + CC[C@@]1(O)C(=O)OCc2c1cc1n(c2=O)Cc2cc3c(CN(C)C)c(O)ccc3nc2-1
IC50 (curve of first compound, second compound 0.003 µM): > 10 µM | IC50 (curve of first compound, second compound 0.00949 µM): > 10 µM | IC50 (curve of first compound, second compound 0.03 µM): < 0.0316 µM | IC50 (curve of first compound, second compound 0.0949 µM): < 0.0316 µM | IC50 (curve of first compound, second compound 0.3 µM): < 0.0316 µM | viability, T/C (second compound 0.003 µM, first compound 0.0316 µM): 114% | viability, T/C (second compound 0.003 µM, first compound 0.1 µM): 113% | viability, T/C (second compound 0.003 µM, first compound 0.316 µM): 112% | viability, T/C (second compound 0.003 µM, first compound 1 µM): 121% | viability, T/C (second compound 0.003 µM, first compound 3.16 µM): 105% | viability, T/C (second compound 0.003 µM, first compound 10 µM): 88.5% | viability, T/C (second compound 0.00949 µM, first compound 0.0316 µM): 93% | viability, T/C (second compound 0.00949 µM, first compound 0.1 µM): 96.2% | viability, T/C (second compound 0.00949 µM, first compound 0.316 µM): 92.4% | viability, T/C (second compound 0.00949 µM, first compound 1 µM): 79% | viability, T/C (second compound 0.00949 µM, first compound 3.16 µM): 68.3% | viability, T/C (second compound 0.00949 µM, first compound 10 µM): 58.9% | viability, T/C (second compound 0.03 µM, first compound 0.0316 µM): 35.3% | viability, T/C (second compound 0.03 µM, first compound 0.1 µM): 35% | viability, T/C (second compound 0.03 µM, first compound 0.316 µM): 32.8% | viability, T/C (second compound 0.03 µM, first compound 1 µM): 27.7% | viability, T/C (second compound 0.03 µM, first compound 3.16 µM): 24% | viability, T/C (second compound 0.03 µM, first compound 10 µM): 18.9% | viability, T/C (second compound 0.0949 µM, first compound 0.0316 µM): 17% | viability, T/C (second compound 0.0949 µM, first compound 0.1 µM): 16.7% | viability, T/C (second compound 0.0949 µM, first compound 0.316 µM): 17.1% | viability, T/C (second compound 0.0949 µM, first compound 1 µM): 16.9% | viability, T/C (second compound 0.0949 µM, first compound 3.16 µM): 13.7% | viability, T/C (second compound 0.0949 µM, first compound 10 µM): 13.7% | viability, T/C (second compound 0.3 µM, first compound 0.0316 µM): 11% | viability, T/C (second compound 0.3 µM, first compound 0.1 µM): 11% | viability, T/C (second compound 0.3 µM, first compound 0.316 µM): 11.4% | viability, T/C (second compound 0.3 µM, first compound 1 µM): 9.27% | viability, T/C (second compound 0.3 µM, first compound 3.16 µM): 12.8% | viability, T/C (second compound 0.3 µM, first compound 10 µM): 12.3%

CC(C)n1c(=O)n(C)c2cnc3cc(F)c(-c4ccc(OCCCN5CCCCC5)nc4)cc3c21 + Cn1nnc2c(C(N)=O)ncn2c1=O
IC50 [1]: 6.43 µM | IC50 [2]: 7.31 µM | IC50 [3]: 6.55 µM | IC50 [4]: 6.08 µM | IC50 [5]: 4.32 µM | viability, T/C [6]: 95.4% | viability, T/C [7]: 100% | viability, T/C [8]: 101% | viability, T/C [9]: 98.9% | viability, T/C [10]: 75.4% | viability, T/C [11]: 34.2% | viability, T/C [12]: 104% | viability, T/C [13]: 105% | viability, T/C [14]: 104% | viability, T/C [15]: 106% | viability, T/C [16]: 94.8% | viability, T/C [17]: 32.9% | viability, T/C [18]: 103% | viability, T/C [19]: 111% | viability, T/C [20]: 105% | viability, T/C [21]: 93.5% | viability, T/C [22]: 79% | viability, T/C [23]: 33.4% | viability, T/C [24]: 99.6% | viability, T/C [25]: 96% | viability, T/C [26]: 101% | viability, T/C [27]: 95.3% | viability, T/C [28]: 71.2% | viability, T/C [29]: 33.8% | viability, T/C [30]: 85.8% | viability, T/C [31]: 81.6% | viability, T/C [32]: 82.9% | viability, T/C [33]: 84.8% | viability, T/C [34]: 58.8% | viability, T/C [35]: 26.5%
